Tests used:
[1] = target: Delta-type opioid receptor (Homo sapiens, UniProt P41143); test: Inhibition of [3H]naltrindole binding to opioid receptor delta 1 of Chinese hamster ovary membrane; parameters: species or system Cricetulus griseus
Mu-type opioid receptor [2] = target: T1, Mu-type opioid receptor (Homo sapiens, UniProt P35372); parameters: species or system Cricetulus griseus
Description: Inhibition of [3H]-DAMGO binding to Opioid receptor mu 1 of Chinese hamster ovary membrane

[3] = target: T2, Kappa-type opioid receptor (Homo sapiens, UniProt P41145); parameters: species or system Cricetulus griseus
Description: Inhibition of [3H]U-69593 binding to Opioid receptor kappa 1 of Chinese hamster ovary membrane

Mu-type opioid receptor [4] = target: T1, Mu-type opioid receptor
Description: Agonistic activity against Opioid receptor mu 1 in Chinese hamster ovary membranes

[5] = target: T2, Kappa-type opioid receptor; test: Binding ability against kappa opioid receptor by stimulating the [35S]GTP-gamma-S, radioligand in Chinese hamster ovary membranes; format: functional, cell membranes; details: Cricetulus griseus
[6] = target: T2, Kappa-type opioid receptor; test: Agonistic activity against kappa opioid receptor in Chinese hamster ovary membranes; format: functional, cell membranes, Cricetulus griseus

T1 sequence (P35372 whole entry): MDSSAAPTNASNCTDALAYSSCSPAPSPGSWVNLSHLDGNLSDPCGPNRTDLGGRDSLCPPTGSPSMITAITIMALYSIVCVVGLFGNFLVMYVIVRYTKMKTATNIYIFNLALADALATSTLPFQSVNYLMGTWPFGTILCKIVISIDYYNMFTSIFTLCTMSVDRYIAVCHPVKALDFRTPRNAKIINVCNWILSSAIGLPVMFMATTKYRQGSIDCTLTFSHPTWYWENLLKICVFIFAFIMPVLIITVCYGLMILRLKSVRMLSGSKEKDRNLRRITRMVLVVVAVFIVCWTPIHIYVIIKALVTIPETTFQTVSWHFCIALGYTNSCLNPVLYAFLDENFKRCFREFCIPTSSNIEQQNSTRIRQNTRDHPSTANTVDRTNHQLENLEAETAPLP
Chain of Delta-type opioid receptor (P41143 whole entry): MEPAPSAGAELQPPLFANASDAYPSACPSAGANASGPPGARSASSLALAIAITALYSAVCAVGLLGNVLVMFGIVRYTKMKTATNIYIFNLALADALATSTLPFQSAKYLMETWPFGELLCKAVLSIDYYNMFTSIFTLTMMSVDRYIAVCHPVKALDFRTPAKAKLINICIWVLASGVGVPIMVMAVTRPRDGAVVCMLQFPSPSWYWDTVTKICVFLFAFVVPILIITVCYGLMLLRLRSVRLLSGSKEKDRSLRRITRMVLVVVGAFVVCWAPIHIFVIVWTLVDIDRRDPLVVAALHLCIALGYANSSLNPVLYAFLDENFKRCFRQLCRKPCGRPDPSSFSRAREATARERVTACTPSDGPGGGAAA
T2 sequence (P41145 whole entry): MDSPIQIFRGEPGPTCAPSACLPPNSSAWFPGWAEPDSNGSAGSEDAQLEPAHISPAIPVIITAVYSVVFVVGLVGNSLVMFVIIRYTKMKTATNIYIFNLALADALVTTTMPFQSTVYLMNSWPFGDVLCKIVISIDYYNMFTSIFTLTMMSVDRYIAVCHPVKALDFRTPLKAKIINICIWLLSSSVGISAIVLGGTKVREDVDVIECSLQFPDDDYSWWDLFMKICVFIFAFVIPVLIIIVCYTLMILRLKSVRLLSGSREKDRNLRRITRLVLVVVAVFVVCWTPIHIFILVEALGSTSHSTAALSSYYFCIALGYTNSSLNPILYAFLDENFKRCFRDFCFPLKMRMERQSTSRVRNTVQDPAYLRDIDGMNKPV

| Structure (SMILES) | Ki [1] [nM] | Ki (Mu-type opioid receptor [2]) [nM] | Ki [3] [nM] | EC50 (Mu-type opioid receptor [4]) [nM] | Emax [5] [%] | EC50 [6] [nM] |
| --- | --- | --- | --- | --- | --- | --- |
| C[C@H]1[C@H]2Cc3cc4sc(N)nc4cc3[C@]1(C)CCN2CC1CCC1 | 93 | 8.3 | 0.49 | – | – | – |
| Nc1nc2cc3c(cc2s1)C[C@@H]1[C@@H]2CCCC[C@]32CCN1CC1CC1 | – | – | – | 73 | 80 | 2.4 |
| C[C@H]1C2Cc3ccc(O)cc3[C@]1(C)CCN2CC1CC1 | 1.1 | – | 0.18 | – | – | – |
| CN1CC[C@]23CCCC[C@H]2[C@H]1Cc1cc2sc(N)nc2cc13 (stereo in doubt; 4) | 190 | 1.1 | 6.4 | – | – | – |
| C[C@H]1[C@H]2Cc3cc4sc(N)nc4cc3[C@]1(C)CCN2CC1CC1 | 940 | 48 | 6.7 | – | – | – |
| Nc1nc2cc3c(cc2s1)C(=O)[C@@H]1C2CCCC[C@]32CCN1CC1CCC1 (some centres not stated) | > 10000 | 200 | 13 | – | – | – |
| CN1CC[C@]23c4c5cc6sc(N)nc6c4O[C@H]2[C@@H](O)CCC3[C@H]1C5 (some centres not stated) | 32 | 30 | 220 | – | – | – |
| Nc1nc2cc3c(cc2s1)C[C@@H]1[C@@H]2CCCC[C@]32CCN1CC1CCC1 | – | – | – | – | 80 | 29 |

From ChEMBL document CHEMBL1149134, “2-aminothiazole-derived opioids. Bioisosteric replacement of phenols” (J Med Chem, 2004)
